In patent publication US5541175A, “Cephalosporin antibiotics” (Lucky, Ltd., priority 1993, dated 1996):
≈ marks a conversion by molar mass, not a printed value.

Key:
[1] = tested on: Pseudomonas aeruginosa 10145; assay: Minimum inhibitory concentration (agar 2-fold dilution); assay type: cell-based; conditions: Pseudomonas aeruginosa; P. aeruginosa 10145; Muller-Hinton agar, 37° C., 20 hours; read-out: Minimum Inhibitory Concentration
How it was run: (§1)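 Test strains, suspended at 10^7 CFU per ml, are inoculated onto Mueller-Hinton agar carrying doubling dilutions of compound.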

[2] = tested on: Staphylococcus aureus giorgio; assay: as above; assay type: cell-based; conditions: S. aureus giorgio, Muller-Hinton agar, 37° C., 20 hours, read-out: Minimum Inhibitory Concentration
How it was run: as §1

[3] = tested on: Acinetobacter calcoaceticus 15473A; assay: as above; assay type: cell-based; conditions: A. calcoaceticus 15473A, Muller-Hinton agar, 37° C., 20 hours, read-out: Minimum Inhibitory Concentration
How it was run: as §1

[4] = tested on: Enterobacter cloacae IND + VE 1194E; assay: as above; assay type: cell-based; conditions: E. cloacae IND + VE 1194E, Muller-Hinton agar, 37° C., 20 hours, read-out: Minimum Inhibitory Concentration
How it was run: as §1

[5] = tested on: Citrobacter diversus 2046E; assay: as above; assay type: cell-based; conditions: Citrobacter koseri; C. diversus 2046E; Muller-Hinton agar, 37° C., 20 hours; read-out: Minimum Inhibitory Concentration
How it was run: as §1

[6] = tested on: Escherichia coli TEM5 3739E; assay: as above; assay type: cell-based; conditions: TEM53739E, 20 h, read-out: Minimum Inhibitory Concentration
How it was run: as §1

[7] = tested on: Proteus vulgaris 6059A; assay: as above; assay type: cell-based; conditions: P. vulgaris 6059A, Muller-Hinton agar, 37° C., 20 hours, read-out: Minimum Inhibitory Concentration
How it was run: as §1

[8] = tested on: Staphylococcus aureus epidermidis 887E; assay: as above; assay type: cell-based; conditions: S. aureus epidermidis 887E, Muller-Hinton agar, 37° C., 20 hours, read-out: Minimum Inhibitory Concentration
How it was run: as §1

[9] = tested on: Escherichia coli TEM3 3455E; assay: as above; assay type: cell-based; conditions: TEM33455E, 20 h, read-out: Minimum Inhibitory Concentration
How it was run: as §1

[10] = tested on: Enterobacter cloacae P99; assay: as above; assay type: cell-based; conditions: P99, 20 h, read-out: Minimum Inhibitory Concentration
How it was run: as §1

[11] = tested on: Staphylococcus aureus 241; assay: as above; assay type: cell-based; conditions: Staphylococcus aureus; S. aureus 241; Muller-Hinton agar, 37° C., 20 hours; read-out: Minimum Inhibitory Concentration
How it was run: as §1

[12] = tested on: Escherichia coli TEM7 3457E; assay: as above; assay type: cell-based; conditions: TEM73457E, 20 h, read-out: Minimum Inhibitory Concentration
How it was run: as §1

[13] = tested on: Escherichia coli TEM9 2639E; assay: as above; assay type: cell-based; conditions: TEM92639E, 20 h, read-out: Minimum Inhibitory Concentration
How it was run: as §1

[14] = tested on: Staphylococcus aureus 6538P; assay: as above; assay type: cell-based; conditions: 6538P, 20 h, read-out: Minimum Inhibitory Concentration
How it was run: as §1

[15] = tested on: Escherichia coli 3190Y; assay: as above; assay type: cell-based; conditions: E. coli 3190Y, Muller-Hinton agar, 37° C., 20 hours, read-out: Minimum Inhibitory Concentration
How it was run: as §1

[16] = tested on: Klebsiella aerogenes K1 + 1082E; assay: as above; assay type: cell-based; conditions: 20 h, read-out: Minimum Inhibitory Concentration
How it was run: as §1

[17] = tested on: Staphylococcus aureus 77; assay: as above; assay type: cell-based; conditions: Staphylococcus aureus; S. aureus 77; Muller-Hinton agar, 37° C., 20 hours; read-out: Minimum Inhibitory Concentration
How it was run: as §1

[18] = tested on: Pseudomonas aeruginosa 1912E; assay: as above; assay type: cell-based; conditions: P. aeruginosa 1912E, Muller-Hinton agar, 37° C., 20 hours, read-out: Minimum Inhibitory Concentration
How it was run: as §1

[19] = tested on: Escherichia coli 851E; assay: as above; assay type: cell-based; conditions: E. coli 851E, Muller-Hinton agar, 37° C., 20 hours
How it was run: as §1

[20] = tested on: Klebsiella aerogenes SHV-1 1976E; assay: as above; assay type: cell-based; conditions: SHV11976E, K. aerogenes SHV-1 1976E, Muller-Hinton agar, 37° C., 20 hours
How it was run: as §1

[21] = tested on: Streptococcus faecalis 29212A; assay: as above; assay type: cell-based; conditions: Enterococcus faecalis; S. faecalis 29212A; Muller-Hinton agar, 37° C., 20 hours; read-out: Minimum Inhibitory Concentration
How it was run: as §1

[22] = tested on: Escherichia coli 10536; assay: as above; assay type: cell-based; conditions: Escherichia coli; E. coli 10536; Muller-Hinton agar, 37° C., 20 hours; read-out: Minimum Inhibitory Concentration
How it was run: as §1

[23] = tested on: Salmonella typhimurium 14028A; assay: as above; assay type: cell-based; conditions: Salmonella enterica; S. typhimurium 14028A; Muller-Hinton agar, 37° C., 20 hours; read-out: Minimum Inhibitory Concentration
How it was run: as §1

[24] = tested on: Escherichia coli TEM1 1193E; assay: as above; assay type: cell-based; conditions: TEM11193E, 20 h, read-out: Minimum Inhibitory Concentration
How it was run: as §1

[25] = tested on: Serratia marcescens 1826E; assay: as above; assay type: cell-based; conditions: S. marcescens 1826E, Muller-Hinton agar, 37° C., 20 hours, read-out: Minimum Inhibitory Concentration
How it was run: as §1

[26] = tested on: Pseudomonas aeruginosa 6065; assay: as above; assay type: cell-based; conditions: Pseudomonas aeruginosa; P. aeruginosa 6065; Muller-Hinton agar, 37° C., 20 hours; read-out: Minimum Inhibitory Concentration
How it was run: as §1

[27] = Pharmacokinetic properties in rats (blood concentration by agar well biological assay); parameters: species or system SD rats (male); conditions: rat, in vivo, iv, 20 mg/kg
Method: The pharmacokinetic properties of the compound of the present invention were determined using SD rats (.male.) weighing 230±10 g. Specifically,the test samples were injected into femoral vein in an amount of 20 mg/kg to 4 to 5 test animals. Blood was taken from femoral vein 1, 2.5, 5, 10, 20, 40, 60, 120 and 180 minutes after administration and then subjected to a biological assay using agar well method to measure the blood concentration.

Nc1nc(/C(=N/O[C@H](C(=O)O)c2ccc(O)c(O)c2)C(=O)N[C@@H]2C(=O)N3C(C(=O)[O-])=C(/C=C/C[n+]4cnc(N)c5c4CCC5)CS[C@H]23)cs1 [Compound I-3a, 7-[(Z)-2-(2-aminothiazol-4-yl)-2-(α-carboxy-3,4-dihydroxybenzyloxyimino)acetamido]-3-[(E)-3-(4-amino-5,6-cyclopentanopyrimidinium-1-yl)-1-propen-1-yl]-3-cephem-4-carboxylate]
MIC [1]: 0.5 µg/mL (≈ 0.705 µM)
MIC [2]: 1 µg/mL (≈ 1.41 µM)
MIC [3]: 0.5 µg/mL (≈ 0.705 µM)
MIC [4]: 2 µg/mL
MIC [5]: 0.063 µg/mL (≈ 0.0889 µM)
MIC [6]: 0.5 µg/mL (≈ 0.705 µM)
MIC [7]: 0.13 µg/mL (≈ 0.183 µM)
MIC [8]: 64 µg/mL (≈ 90.3 µM)
MIC [9]: 0.063 µg/mL (≈ 0.0889 µM)
MIC [10]: 16 µg/mL (≈ 22.6 µM)
MIC [11]: > 128 µg/mL
MIC [12]: 0.13 µg/mL (≈ 0.183 µM)
MIC [13]: 2 µg/mL (≈ 2.82 µM)
MIC [14]: 1 µg/mL (≈ 1.41 µM)
MIC [15]: 0.031 µg/mL (≈ 0.0437 µM)
MIC [16]: 0.063 µg/mL (≈ 0.0889 µM)
MIC [17]: 4 µg/mL (≈ 5.64 µM)
MIC [18]: 0.5 µg/mL (≈ 0.705 µM)
MIC [19]: 0.031 µg/mL (≈ 0.0437 µM)
MIC [20]: 0.13 µg/mL (≈ 0.183 µM)
MIC [21]: 4 µg/mL (≈ 5.64 µM)
MIC [22]: 0.008 µg/mL (≈ 0.0113 µM)
MIC [23]: 0.031 µg/mL (≈ 0.0437 µM)
MIC [24]: 0.063 µg/mL (≈ 0.0889 µM)
MIC [25]: 0.5 µg/mL (≈ 0.705 µM)
MIC [26]: 1 µg/mL (≈ 1.41 µM)
AUC [27]: 36600 ng·h/mL
half-life [27]: 33 min
